In experiment [1] the target is T1, Dihydrofolate reductase (Escherichia coli) (UniProt P0ABQ4).
T1 sequence (whole entry): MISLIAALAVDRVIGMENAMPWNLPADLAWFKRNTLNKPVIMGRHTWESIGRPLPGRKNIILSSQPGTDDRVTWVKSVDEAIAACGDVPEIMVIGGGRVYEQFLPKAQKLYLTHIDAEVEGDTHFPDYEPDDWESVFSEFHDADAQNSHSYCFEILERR
Description: Rate of hydride transfer (E-N) of compound for wild type Escherichia coli dihydrofolate reductase

Experiment [2] relates to T2, Dihydrofolate reductase (Escherichia coli), P0ABQ4 [T46N].
T2 sequence (whole entry): T1 sequence (whole entry) with T46N

Experiment [3] has as its system T3, Dihydrofolate reductase (Escherichia coli), P0ABQ4 [T46S].
T3 sequence (whole entry): T1 sequence (whole entry) with T46S

Experiment [4] relates to T4, Dihydrofolate reductase (Escherichia coli), P0ABQ4 [T46A].
T4 sequence (whole entry): T1 sequence (whole entry) with T46A

The target in experiment [5] is T1, Dihydrofolate reductase (Escherichia coli). The source holds these as a separate data set.
Description: Dissociation rate constant of compound for wild type Escherichia coli dihydrofolate reductase

Residue numbers refer to the chain shown, from its start.

In experiment [1], `Nc1nc(O)c2c(n1)NCC(CNc1ccc(C(=O)N[C@@H](CCC(=O)O)C(=O)O)cc1)N2` (stereo not given in full) displayed a Rate of hydride transfer of 950 s⁻¹.

Turning to `NC(=O)c1ccc[n+]([C@H]2O[C@@H](COP(=O)([O-])OP(=O)(O)OC[C@H]3O[C@@H](n4cnc5c(N)ncnc54)[C@H](OP(=O)(O)O)[C@@H]3O)[C@H](O)[C@@H]2O)c1`, the k off in experiment [2] is 253 s⁻¹; in experiment [3], 230 s⁻¹; in experiment [4] it was 274 s⁻¹; in experiment [5], 200 s⁻¹.

For the molecule `NC(=O)c1ccc[n+]([C@@H]2O[C@H](COP(=O)([O-])OP(=O)(O)OC[C@H]3O[C@@H](n4cnc5c(N)ncnc54)[C@H](OP(=O)(O)O)[C@@H]3O)[C@@H](O)[C@H]2O)c1`, the k off in experiment [2] came out at 56 s⁻¹; in experiment [3], 60 s⁻¹; in experiment [4], 28 s⁻¹; in experiment [5] it was 3.5 s⁻¹.

In turn, `Nc1nc(=O)c2c([nH]1)NCC(CNc1ccc(C(=O)N[C@@H](CCC(=O)O)C(=O)O)cc1)=N2` returned a k off in experiment [5] of 22 s⁻¹.

These data come from ChEMBL document CHEMBL1125508.
